Source: ChEMBL document CHEMBL1135294, “Synthesis of a molecular mimic of the Glc1Man9 oligoside as potential inhibitor of calnexin binding to DeltaF508 CFTR protein” (Bioorg Med Chem Lett, 2002)

Target: T1, Calnexin (Homo sapiens, UniProt P27824)
T1 sequence (P27824 whole entry): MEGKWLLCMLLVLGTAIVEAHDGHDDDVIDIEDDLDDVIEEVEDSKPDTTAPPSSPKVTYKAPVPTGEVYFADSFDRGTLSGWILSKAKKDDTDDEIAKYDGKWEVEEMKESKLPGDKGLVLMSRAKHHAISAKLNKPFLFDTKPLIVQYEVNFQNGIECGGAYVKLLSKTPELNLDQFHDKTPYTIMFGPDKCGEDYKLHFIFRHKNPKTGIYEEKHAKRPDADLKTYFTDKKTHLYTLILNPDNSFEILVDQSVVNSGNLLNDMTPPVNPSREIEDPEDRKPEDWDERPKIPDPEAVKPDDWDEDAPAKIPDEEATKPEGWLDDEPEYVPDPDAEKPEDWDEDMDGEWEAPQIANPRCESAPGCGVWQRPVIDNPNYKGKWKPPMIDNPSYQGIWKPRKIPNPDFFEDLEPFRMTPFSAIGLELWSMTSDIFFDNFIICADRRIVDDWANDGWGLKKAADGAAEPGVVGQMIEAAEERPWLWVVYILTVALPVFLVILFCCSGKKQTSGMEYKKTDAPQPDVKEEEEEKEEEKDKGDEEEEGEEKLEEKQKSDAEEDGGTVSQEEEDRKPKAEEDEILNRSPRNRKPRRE
Experiment: Compound was tested for its ability to inhibit binding of [3H]- Glc1Man9 GlcNAc2 to GST-fused calnexin immobilized on glutathione-agarose

IC50: 300 µM
Structure (SMILES): O=C(NCC(CNC(=O)OCCNC(=O)O[C@H]1O[C@@H](CO)[C@@H](O)[C@H](O)[C@H]1O)OC(=O)NC(O)NC(=O)OCCOCCNC(=O)O[C@H]1C[C@@H](CO)[C@@H](O)[C@H](O[C@H]2O[C@@H](CO)[C@@H](O)[C@H](O)[C@@H]2O)[C@H]1O)OCCNC(=O)O[C@H]1O[C@@H](CO)[C@@H](O)[C@H](O)[C@H]1O (stereo partly specified)
